Activity calls are given as the source filed them. No cut-off for these calls is given here.
Key:
Candida albicans = test: Antifungal activity against Candida albicans assessed as inhibition of fungal growth; assay type: functional, organism-based
Proteus vulgaris = test: Antibacterial activity against Proteus vulgaris assessed as inhibition of bacterial growth; assay type: functional, organism-based
Staphylococcus aureus = test: Antibacterial activity against Staphylococcus aureus assessed as inhibition of bacterial growth; assay type: functional, organism-based
Salmonella typhimurium = test: Antibacterial activity against Salmonella typhimurium assessed as inhibition of bacterial growth; assay type: functional, organism-based; conditions: Salmonella enterica subsp. enterica serovar Typhimurium
[1] = system: Mycolicibacterium smegmatis; test: Antibacterial activity against Mycobacterium smegmatis assessed as inhibition of bacterial growth; assay type: functional, organism-based
[2] = Selectivity index, ratio of IC50 for cytotoxicity against human HL7702 cells to IC50 for antiproliferative activity against human HepG2 cells; assay type: toxicity, cell-based; conditions: HL7702 cells versus HepG2 cells, read-out: Ratio IC50
Escherichia coli = test: Antibacterial activity against Escherichia coli assessed as inhibition of bacterial growth; assay type: functional, organism-based
HepG2 [3] = test: Antiproliferative activity against human HepG2 cells assessed as reduction in cell viability measured after 48 hrs by CCK8 assay; assay type: functional, cell-based; conditions: HepG2, 48 h
[4] = Cytotoxicity against human HL7702 cells assessed as reduction in cell viability measured after 48 hrs by CCK8 assay; assay type: toxicity, cell-based; conditions: HL7702 (L02) cells
Pseudomonas aeruginosa = test: Antibacterial activity against Pseudomonas aeruginosa assessed as inhibition of bacterial growth; assay type: functional, organism-based
HepG2 [5] = test: Induction of apoptosis in human HepG2 cells assessed as viable cells at 10 uM measured after 48 hrs by AnnexinV-FITC/PI staining based flow cytometry (reference value: 95.88%); assay type: functional; conditions: read-out: Activity
HepG2 [6] = test: Induction of apoptosis in human HepG2 cells assessed as necrotic cells at 10 uM measured after 48 hrs by AnnexinV-FITC/PI staining based flow cytometry (reference value: 0.19%); assay type: functional
HepG2 [7] = test: Inhibition of colony formation in human HepG2 cells assessed as relative colony formation area at 15 uM treated every 6 hrs for 24 hrs followed by culturing in fresh medium for 7 days by Giemsa staining based analysis; assay type: functional; set-up: scale not given: the % may be the effect or the level left
HepG2 [8] = test: Induction of apoptosis in human HepG2 cells assessed as late apoptotic cells at 20 uM measured after 48 hrs by AnnexinV-FITC/PI staining based flow cytometry (reference value: 2.73%); assay type: functional
HepG2 [9] = test: Induction of apoptosis in human HepG2 cells assessed as necrotic cells at 20 uM measured after 48 hrs by AnnexinV-FITC/PI staining based flow cytometry (reference value: 0.19%); assay type: functional
HepG2 [10] = test: Induction of apoptosis in human HepG2 cells assessed as late apoptotic cells at 10 uM measured after 48 hrs by AnnexinV-FITC/PI staining based flow cytometry (reference value: 2.73%); assay type: functional
HepG2 [11] = test: Antimetastatic activity against human HepG2 cells assessed as inhibition of cell migration measured after 12 to 24 hrs by scratch wound healing assay; assay type: functional, cell-based; conditions: time 12-24 hrs
HepG2 [12] = test: Inhibition of colony formation in human HepG2 cells assessed as relative colony formation area at 10 uM treated every 6 hrs for 24 hrs followed by culturing in fresh medium for 7 days by Giemsa staining based analysis; assay type: functional; set-up: scale not given: the % may be the effect or the level left
HepG2 [13] = test: Induction of apoptosis in human HepG2 cells assessed as viable cells at 20 uM measured after 48 hrs by AnnexinV-FITC/PI staining based flow cytometry (reference value: 95.88%); assay type: functional; conditions: read-out: Activity
HepG2 [14] = test: Induction of apoptosis in human HepG2 cells assessed as early apoptotic cells at 20 uM measured after 48 hrs by AnnexinV-FITC/PI staining based flow cytometry (reference value: 1.21%); assay type: functional
HepG2 [15] = test: Induction of apoptosis in human HepG2 cells assessed as early apoptotic cells at 10 uM measured after 48 hrs by AnnexinV-FITC/PI staining based flow cytometry (reference value: 1.21%); assay type: functional
HepG2 [16] = test: Inhibition of colony formation in human HepG2 cells assessed as relative colony formation area at 20 uM treated every 6 hrs for 24 hrs followed by culturing in fresh medium for 7 days by Giemsa staining based analysis; assay type: functional; set-up: scale not given: the % may be the effect or the level left
HepG2 [17] = test: Inhibition of colony formation in human HepG2 cells assessed as relative colony formation area at 5 uM treated every 6 hrs for 24 hrs followed by culturing in fresh medium for 7 days by Giemsa staining based analysis; assay type: functional; set-up: scale not given: the % may be the effect or the level left

CC1(C)CCC[C@]2(C)C3=C(COC3=O)C[C@H](OC(=O)/C=C/c3ccc(O)cc3)[C@@H]12
Activity (Candida albicans): inactive
Activity (Proteus vulgaris): inactive
Activity (Staphylococcus aureus): inactive
Activity (Salmonella typhimurium): inactive
Activity [1]: inactive
selectivity ratio [2]: > 6.9
Activity (Escherichia coli): inactive
IC50 (HepG2 [3]): 14.2 µM
IC50 at 48 h [4]: > 100 µM
Activity (Pseudomonas aeruginosa): inactive

CC(=O)Oc1ccc(/C=C/C(=O)O[C@H]2CC3=C(C(=O)OC3)[C@@]3(C)CCCC(C)(C)[C@H]23)cc1
viability at 10 µM (HepG2 [5]): 91%
Activity (HepG2 [6]): 0.27%
Activity (HepG2 [7]): 5.9%
Activity (HepG2 [8]): 6.23%
Activity (Candida albicans): inactive
Activity (HepG2 [9]): 0.2%
Activity (HepG2 [10]): 6.96%
Activity (HepG2 [11]): Active
Activity (HepG2 [12]): 8.1%
Activity (Proteus vulgaris): inactive
Activity (Staphylococcus aureus): inactive
Activity (Salmonella typhimurium): inactive
Activity [1]: inactive
viability at 20 µM (HepG2 [13]): 79.2%
selectivity ratio [2]: > 11.4
Activity (HepG2 [14]): 14.41%
Activity (Escherichia coli): inactive
Activity (HepG2 [15]): 1.73%
Activity (HepG2 [16]): 2.3%
Activity (HepG2 [17]): 11.2%
IC50 (HepG2 [3]): 8.8 µM
IC50 at 48 h [4]: > 100 µM
Activity (Pseudomonas aeruginosa): inactive

CC1(C)CCC[C@]2(C)C3=C(COC3=O)C[C@H](OC(=O)/C=C/c3ccc(C(F)(F)F)cc3)[C@@H]12
Activity (Candida albicans): inactive
Activity (Proteus vulgaris): inactive
Activity (Staphylococcus aureus): inactive
Activity (Salmonella typhimurium): inactive
Activity [1]: inactive
Activity (Escherichia coli): inactive
IC50 (HepG2 [3]): > 50 µM
Activity (Pseudomonas aeruginosa): inactive

COc1cc([C@@H]2c3cc4c(cc3[C@@H](O[C@@H]3O[C@@H]5CO[C@@H](C)O[C@H]5[C@H](O)[C@H]3O)[C@H]3COC(=O)[C@H]23)OCO4)cc(OC)c1O [ETOPOSIDE]
selectivity ratio [2]: 8.4
IC50 (HepG2 [3]): 5.9 µM
IC50 at 48 h [4]: 49.6 µM

CC1(C)CCC[C@]2(C)C3=C(COC3=O)C[C@H](O)[C@@H]12
Activity (Candida albicans): inactive
Activity (Proteus vulgaris): inactive
Activity (Staphylococcus aureus): inactive
Activity (Salmonella typhimurium): inactive
Activity [1]: inactive
Activity (Escherichia coli): inactive
IC50 (HepG2 [3]): > 50 µM
Activity (Pseudomonas aeruginosa): inactive

CC1(C)CCC[C@]2(C)C3=C(COC3=O)C[C@H](OC(=O)/C=C/c3ccccc3F)[C@@H]12
Activity (Candida albicans): inactive
Activity (Proteus vulgaris): inactive
Activity (Staphylococcus aureus): inactive
Activity (Salmonella typhimurium): inactive
Activity [1]: inactive
selectivity ratio [2]: > 4.5
Activity (Escherichia coli): inactive
IC50 (HepG2 [3]): 22.2 µM
IC50 at 48 h [4]: > 100 µM
Activity (Pseudomonas aeruginosa): inactive

CC1(C)CCC[C@]2(C)C3=C(COC3=O)C[C@H](OC(=O)/C=C/c3ccccc3)[C@@H]12
Activity (Candida albicans): inactive
Activity (Proteus vulgaris): inactive
Activity (Staphylococcus aureus): inactive
Activity (Salmonella typhimurium): inactive
Activity [1]: inactive
Activity (Escherichia coli): inactive
IC50 (HepG2 [3]): > 50 µM
Activity (Pseudomonas aeruginosa): inactive

CC1(C)CCC[C@]2(C)C3=C(COC3=O)C[C@H](OC(=O)/C=C/c3ccc(Cl)cc3)[C@@H]12
Activity (Candida albicans): inactive
Activity (Proteus vulgaris): inactive
Activity (Staphylococcus aureus): inactive
Activity (Salmonella typhimurium): inactive
Activity [1]: inactive
Activity (Escherichia coli): inactive
IC50 (HepG2 [3]): > 50 µM
Activity (Pseudomonas aeruginosa): inactive

Source: ChEMBL document CHEMBL5385924, “Stereoselective Synthesis of Xylodonin A and 22-Hydroxyxylodonin A and Discovery of Analogues with Cytotoxic Activity” (J Nat Prod, 2024)
